# Literature values as cited in PubChem BioAssay AID1259409 (Chemical Carcinogenesis Research Information System (CCRIS), 2018).
# Tested on: rodent chemically induced tumor inhibition, incidence and multiplicity
# Assay: CCRIS tumor inhibitor studies
compound,measurement,setting,value
CCS(=O)(=O)Nc1ncc(C(F)(F)F)cc1NC(=O)C1CCCCC1,"tumour outcome (control, treated, inhibition, significance)","Carcinogen: N-NITROSOBIS(2-OXOPROPYL)AMINE [60599-38-4], Dose [Inhibitor]: 200 PPM FOR 16 WK BEGINNING 1 WK POST CHOLECYSTODUOODENOSTOMY AND LIGATION OF DISTAL END OF COMMON DUCT (STUDY DURATION:, Route [Inhibitor]: ORAL, Species: HAMSTER, Strain/Sex: SYRIAN/FEMALE, Target Tissue: Type of Lesion: EXTRAHEPATIC BILE DUCT: ADENOCARCINOMA, Dose [Carcinogen]: 10 MG/KG BW 1X/WK FOR 10 WK BEGINNING 1 WK POST CHOLECYSTODUODENOSTOMY AND LIGATION OF DISTAL END OF COMMON DUCT (STUDY, Promoter: NONE","14/26 (54%), 2/15 (13%), 76%, p<0.05"
same,"tumour outcome (control, treated, inhibition, significance)","Carcinogen: N-NITROSOBIS(2-OXOPROPYL)AMINE [60599-38-4], Dose [Inhibitor]: 200 PPM FOR 16 WK BEGINNING 1 WK POST CHOLECYSTODUOODENOSTOMY AND LIGATION OF DISTAL END OF COMMON DUCT (STUDY DURATION:, Route [Inhibitor]: ORAL, Species: HAMSTER, Strain/Sex: SYRIAN/FEMALE, Target Tissue: Type of Lesion: GALL BLADDER: ADENOCARCINOMA, Dose [Carcinogen]: 10 MG/KG BW 1X/WK FOR 10 WK BEGINNING 1 WK POST CHOLECYSTODUOODENOSTOMY AND LIGATION OF DISTAL END OF COMMON DUCT (STUDY, Promoter: NONE","18/26 (69%), 3/15 (20%), 71%, p<0.01"
same,"tumour outcome (control, treated, inhibition, significance)","Carcinogen: N-NITROSOBIS(2-OXOPROPYL)AMINE [60599-38-4], Dose [Inhibitor]: 200 PPM FOR 16 WK BEGINNING 1 WK POST CHOLECYSTODUOODENOSTOMY AND LIGATION OF DISTAL END OF COMMON DUCT (STUDY DURATION:, Route [Inhibitor]: ORAL, Species: HAMSTER, Strain/Sex: SYRIAN/FEMALE, Target Tissue: Type of Lesion: INTRAHEPATIC BILE DUCT: ADENOCARCINOMA, Dose [Carcinogen]: 10 MG/KG BW 1X/WK FOR 10 WK BEGINNING 1 WK POST CHOLECYSTODUODENOSTOMY AND LIGATION OF DISTAL END OF COMMON DUCT (STUDY, Promoter: NONE","14/26 (54%), 3/15 (20%), 63%, p<0.05"
Oc1c(Cl)c(Cl)c(Cl)c(Cl)c1Cl,"tumour outcome (control, treated, inhibition, significance)","Carcinogen: N-HYDROXY-2-ACETYLAMINOFLUORENE, 53-95-2, Dose [Inhibitor]: 0, 0.04 UMOL/G BW IN 10 µL/G BW TRIOCTANOIN ONCE 45 MIN PRIOR TO CARCINOGEN DOSE (STUDY DURATION: 10 MO), Route [Inhibitor]: INTRAPERITONEAL, Species: MOUSE, Strain/Sex: B6C3F1/MALE, Target Tissue: Type of Lesion: LIVER: HEPATOMA, Dose [Carcinogen]: 0.06 UMOL/G BW IN 5 µL/G BW OF 80% DMSO, Promoter: NONE USED","34/34 (100%), 19/33 (58%), 42%, not calculated"
same,"tumour outcome (control, treated, inhibition, significance)","Carcinogen: N-HYDROXY-2-ACETYLAMINOFLUORENE, 53-95-2, Dose [Inhibitor]: 0, 0.04 UMOL/G BW IN 10 µL/G BW TRIOCTANOIN ONCE 45 MIN PRIOR TO CARCINOGEN DOSE (STUDY DURATION: 10 MO), Route [Inhibitor]: INTRAPERITONEAL, Species: MOUSE, Strain/Sex: B6C3F1/MALE, Target Tissue: Type of Lesion: LIVER: HEPATOMA, Dose [Carcinogen]: 0.11 UMOL/G BW IN 5 µL/G BW OF 80% DMSO, Promoter: NONE USED","33/33 (100%), 31/37 (84%), 16%, not calculated"
same,"tumour outcome (control, treated, inhibition, significance)","Carcinogen: N-HYDROXY-2-ACETYLAMINOFLUORENE, 53-95-2, Dose [Inhibitor]: 0, 0.04 UMOL/G BW IN 10 µL/G BW TRIOCTANOIN ONCE 45 MIN PRIOR TO CARCINOGEN DOSE (STUDY DURATION: 10 MO), Route [Inhibitor]: INTRAPERITONEAL, Species: MOUSE, Strain/Sex: B6C3F1/MALE, Target Tissue: Type of Lesion: LIVER: HEPATOMA, Dose [Carcinogen]: 0.22 UMOL/G BW IN 5 µL/G BW OF 80% DMSO, Promoter: NONE USED","39/39 (100%), 31/41 (76%), 24%, not calculated"
CO[C@@]12[C@H](COC(N)=O)C3=C(C(=O)C(C)=C(N)C3=O)N1C[C@@H]1N[C@@H]12,"tumour outcome (control, treated, inhibition, significance)","Carcinogen: N-BUTYL-N-(4-HYDROXYBUTYL)NITROSAMINE, 3817-11-6, Dose [Inhibitor]: 0.5 ML (2000 UG/ML) INSTILLED TRANSURETHRALLY 2/WK FOR 2 WK POST CARCINOGEN DOSE (STUDY DURATION: 20 WK), Route [Inhibitor]: INTRAVESICAL, Species: RAT, Strain/Sex: WISTAR/MALE, Target Tissue: Type of Lesion: BLADDER: CARCINOMA, Dose [Carcinogen]: 0.05% IN DRINKING WATER FOR 12 WK, Promoter: NONE USED","14/20 (70%), 8/10 (80%), -14%, not calculated"
same,"tumour outcome (control, treated, inhibition, significance)","Carcinogen: N-BUTYL-N-(4-HYDROXYBUTYL)NITROSAMINE, 3817-11-6, Dose [Inhibitor]: 0.5 ML (2000 UG/ML) INSTILLED TRANSURETHRALLY 2/WK FOR 2 WK POST CARCINOGEN DOSE (STUDY DURATION: 20 WK), Route [Inhibitor]: INTRAVESICAL, Species: RAT, Strain/Sex: WISTAR/MALE, Target Tissue: Type of Lesion: BLADDER: PAPILLOMA, Dose [Carcinogen]: 0.05% IN DRINKING WATER FOR 12 WK, Promoter: NONE USED","6/20 (30%), 2/10 (20%), 33%, not calculated"
same,"tumour outcome (control, treated, inhibition, significance)","Carcinogen: N-BUTYL-N-(4-HYDROXYBUTYL)NITROSAMINE, 3817-11-6, Dose [Inhibitor]: 2000 UG/ML INSTILLED CONTINUOUSLY FOR 2 WK POST CARCINOGEN DOSE (STUDY DURATION: 12 WK), Route [Inhibitor]: INTRAVESICAL, Species: RAT, Strain/Sex: WISTAR/MALE, Target Tissue: Type of Lesion: BLADDER: CARCINOMA, Dose [Carcinogen]: 0.05% IN DRINKING WATER FOR 12 WK, Promoter: NONE USED","14/20 (70%), 2/10 (20%), 71%, not calculated"
same,"tumour outcome (control, treated, inhibition, significance)","Carcinogen: N-BUTYL-N-(4-HYDROXYBUTYL)NITROSAMINE, 3817-11-6, Dose [Inhibitor]: 2000 UG/ML INSTILLED CONTINUOUSLY FOR 2 WK POST CARCINOGEN DOSE (STUDY DURATION: 12 WK), Route [Inhibitor]: INTRAVESICAL, Species: RAT, Strain/Sex: WISTAR/MALE, Target Tissue: Type of Lesion: BLADDER: PAPILLOMA, Dose [Carcinogen]: 0.05% IN DRINKING WATER FOR 12 WK, Promoter: NONE USED","6/20 (30%), 2/10 (20%), 33%, not calculated"
C=C1/C(=C\C=C2/CCC[C@]3(C)[C@@H]([C@H](C)CCCC(C)C)CC[C@@H]23)C[C@@H](O)C[C@@H]1O,"tumour outcome (control, treated, inhibition, significance)","Carcinogen: N-METHYL-N'-NITRO-N-NITROSOGUANIDINE [70-25-7], Dose [Inhibitor]: 0.04 UG IN MEDIUM CHAIN TRIGLYCERIDE 3X/WK FOR 24 WK BEGINNING IMMEDIATELY POST LAST CARCINOGEN DOSE (STUDY DURATION: 48, Route [Inhibitor]: INTRAGASTRIC, Species: RAT, Strain/Sex: WISTAR WKY/STD/MALE, Target Tissue: Type of Lesion: STOMACH AND SMALL INTESTINE: TUMOR, Dose [Carcinogen]: 0.01% IN DRINKING WATER FOR 24 WK (STUDY DURATION: 48 WK), Promoter: NONE","16/30 (53%), 8/30 (27%), 49%, p<0.05"
same,"tumour outcome (control, treated, inhibition, significance)","Carcinogen: N-METHYL-N'-NITRO-N-NITROSOGUANIDINE, 70-25-7, Dose [Inhibitor]: 0, 0.04 UG 3/WK FOR 24 WK BEGINNING POST CARCINOGEN TREATMENT (STUDY DURATION: 48 WK), Route [Inhibitor]: GAVAGE, Species: RAT, Strain/Sex: WISTAR/MALE, Target Tissue: Type of Lesion: GASTROINTESTINAL TRACT: TUMOR, Dose [Carcinogen]: 0.01% IN DRINKING WATER FOR 24 WK, Promoter: NONE USED","16/30 (53%), 8/30 (27%), 49%, p<0.05"
same,"tumour outcome (control, treated, inhibition, significance)","Carcinogen: N-METHYL-N-NITROSOUREA, 684-93-5, Dose [Inhibitor]: 0, 0.04 UG IN 0.2 ML OF MEDIUM CHAIN TRIGLYCERIDE 3/WK FOR 40 WK (STUDY DURATION: 46 WK), Route [Inhibitor]: INTRAGASTRIC, Species: RAT, Strain/Sex: F344/FEMALE, Target Tissue: Type of Lesion: COLON: TUMOR, Dose [Carcinogen]: 1 MG IN 0.5 ML DISTILLED WATER 1/WK FOR 40 WK, Promoter: NONE USED","21/24 (88%), 12/25 (48%), 45%, p<0.01"
same,"tumour outcome (control, treated, inhibition, significance)","Carcinogen: N-METHYL-N-NITROSOUREA, 684-93-5, Dose [Inhibitor]: 0.04 UG IN 0.2 ML OF MEDIUM CHAIN TRIGLYCERIDE FOLLOWING EACH PROMOTER DOSE 3/WK FOR 48 WK (STUDY DURATION: 50 WK), Route [Inhibitor]: GAVAGE, Species: RAT, Strain/Sex: F344/FEMALE, Target Tissue: Type of Lesion: COLON: ADENOMA OR ADENOCARCINOMA OR LEIOMYOSARCOMA, Dose [Carcinogen]: 2.5 MG IN 0.5 ML DISTILLED WATER TWICE IN 1 WK, Promoter: LITHOCHOLIC ACID, 434-13-9","15/32 (47%), 6/30 (20%), 57%, p<0.05"
CC1=C(/C=C/C(C)=C/C=C/C(C)=C\C(=O)NCCO)C(C)(C)CCC1,"tumour outcome (control, treated, inhibition, significance)","Carcinogen: N-BUTYL-N-(4-HYDROXYBUTYL)NITROSAMINE, 3817-11-6, Dose [Inhibitor]: 1.5 MMOL/KG DIET DAILY FOR 159 D STARTING 1 WK AFTER THE FINAL CARCINOGEN DOSE (STUDY DURATION: 216 D), Route [Inhibitor]: ORAL, Species: MOUSE, Strain/Sex: DBF1/MALE, Target Tissue: Type of Lesion: URINARY BLADDER: TRANSITIONAL CELL CARCINOMA, Dose [Carcinogen]: 7.5 MG 1/WK FOR 8 WK, Promoter: NONE USED","29/98 (30%), 16/97 (17%), 43%, p<0.05"
same,"tumour outcome (control, treated, inhibition, significance)","Carcinogen: N-BUTYL-N-(4-HYDROXYBUTYL)NITROSAMINE, 3817-11-6, Dose [Inhibitor]: 1.5 MMOL/KG IN DIET FOR 159 D STARTING 1 WK AFTER LAST CARCINOGEN DOSE (STUDY DURATION: 216 D), Route [Inhibitor]: ORAL, Species: MOUSE, Strain/Sex: BDF/MALE, Target Tissue: Type of Lesion: URINARY BLADDER: TRANSITIONAL CELL CARCINOMA, Dose [Carcinogen]: 7.5 MG 1/WK FOR 8 WK, Promoter: NONE USED","29/98 (30%), 16/97 (17%), 43%, p<0.05"
